Substitutions are numbered along the chain they refer to.
Key:
[1] = target: T1, human α1R271K-GlyR expressed in HEK 293 cells (Homo sapiens, UniProt P23415, R299K); settings: R271K
T1 sequence (P23415 29-457 R299K): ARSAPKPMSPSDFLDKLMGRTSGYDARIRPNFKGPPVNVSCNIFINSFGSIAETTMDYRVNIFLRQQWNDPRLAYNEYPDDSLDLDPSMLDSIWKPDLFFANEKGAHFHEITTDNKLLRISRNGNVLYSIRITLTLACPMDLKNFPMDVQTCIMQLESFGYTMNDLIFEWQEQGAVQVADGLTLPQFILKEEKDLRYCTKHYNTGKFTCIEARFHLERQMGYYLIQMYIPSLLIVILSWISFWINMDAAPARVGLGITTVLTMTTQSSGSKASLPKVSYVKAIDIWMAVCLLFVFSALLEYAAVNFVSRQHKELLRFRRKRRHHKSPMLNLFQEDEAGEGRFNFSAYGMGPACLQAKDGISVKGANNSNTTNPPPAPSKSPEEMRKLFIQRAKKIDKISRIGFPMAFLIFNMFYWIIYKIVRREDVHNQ
From the text: (§1) Human α1-, α1R271Q-, α1R271L-, α1R271K and α1S267I-GlyR subunits were transiently transfected into human embryonic kidney cells (HEK 293, ATCC, Manassas, USA). The wild type α1-GlyR -cDNA was cloned in pCIS2 (Invitrogen, San Diego, USA) vector and provided by Prof. Heinrich Betz (Max-Planck-Institut für Hirnforschung, Frankfurt am Main, Germany). For the plasmid cDNA of the mutated α1R271Q-, α1R271L-, α1R271K- and α1S267I-GlyR the eukaryotic expression vector pcDNA1amp (Invitrogen, San Diego, USA), under the control of cytomegalovirus promoter, was used. For site-directed mutagenesis, single stranded template cDNA was synthesized from M13 origin of replication and the mutations of arginine residue (R) at position 271 to glutamine (R271Q), leucine (R271L) or lysine (R271K) and mutation of serine residue (S) at position 267 to isoleucine (S267I) were generated using standard procedures. […] Wild type and mutated α1-GlyR subunits efficiently form homomeric receptors in heterologous expression systems.
(§2) HEK 293 cells were cultured in medium containing HAMS’F-12 (Biochrom, Berlin, Germany), supplemented with 10% fetal bovine serum (FBS, Biochrom, Berlin, Germany), 100 U ml^–1 penicillin and 100μgml^–1 streptomycin (Gibco BRL, Life Technologies, Karlsruhe, Germany) at 37°C in a 5% CO2/ 95% air incubator. For transfection cells were suspended in a buffer containing 50mM K2HPO4 (Fluka BioChemika, Seelze, Germany), 20mMK-acetate (Sigma-Aldrich, Taufkirchen, Germany) and 25mM MgSO4 (Sigma-Aldrich, Taufkirchen, Germany) at pH 7.35. To visualize transfected cells, they were co-transfected with cDNA encoding for enhanced green fluorescent protein (EGFP) contained in the pEGFP-N1 expression vector (Clontech, Palo Alto, USA). The corresponding cDNA (5μg for the GlyR and 2.5μg for EGFP) was added to 400μl of the cell suspension and the mixture was rapidly transferred into the electroporation cuvette. For transfection we used an electroporation device by EquiBio (Kent, UK) and a 4mm aluminum electrode electroporation cuvette (Peqlab, Erlangen, Germany).
(§3) The phenol derivative 4-chloropropofol ([…]) was provided as pure substance by Prof. Paul M. O’Neill (University of Liverpool, England), prepared as light-protected 1M stock solution in ethanol (EtOH, J.T.Baker, Griesheim, Germany) and stored in glass vessels at −20°C.
(§4) Drug-containing vials were vigorously vortexed for 30min. Patch electrodes were filled with an intracellular solution of [mM] KCl 140, MgCl2 2, EGTA 11, HEPES 10, glucose 11, CaCl2 1 with pH 7.3, adjusted with 1 M KOH and a bath solution contained [mM] NaCl 162, KCl 5.31, NaHPO4 0.85, KH2PO4 0.22, HEPES 15, glucose 6.11, pH 7.4 adjusted with 1 M NaOH. Osmolarity of both solutions was set at 280–300 mOsmol.
(§5) Whole-cell experiments were performed at a holding potential of −30 mV with a mean seal resistance of 1 GΩ. […] A fast liquid filament switch technique was used for the application of the agonist, presented in pulses of 2 s duration every 20 s. The liquid filament switch technique is able to exchange the solution passing an outside-out patch or small whole-cells within 1–2 ms. We calculated flow rate of background solution through the chamber with 3,4 ml/min corresponding to 4% of maximal pump rate. With regard to the chamber volume of 100 μl the exchange solution time within the chamber was assessed to approximately […], dependent on cell size accordingly. Piezo-switch and small diameter capillary (ID 0.15 mm) within the measurement chamber promoted the millisecond solution exchange. […] The induced current (I) by this saturating control solution was defined as Icontrol. […] The stability of the seal was controlled during the complete experiment via control of the seal resistance. A variation of 10-20% of the basic value was regarded as tolerable.

[2] = target: T2, human α1R271Q-GlyR expressed in HEK 293 cells (Homo sapiens, UniProt P23415, R299Q); settings: R271Q
T2 sequence (P23415 29-457 R299Q): T1 sequence (P23415 29-457 R299K) with K271Q
From the text: as §1, §2, §3, §4, §5

[3] = 10-90% of Imax, monoexponential fit

## NCC(=O)O [glycine]
[1]
  Current amplitude [% of mean WT current amplitude] ± SEM: 32.0±18%
  nH ± SEM (Hill coefficient), glycine activation: 1.0±0.5
[1]; [3]
  Rise time ± SEM: 14.9 ± 7.7 ms
[1]; saturating glycine 10 mM
  Mean current amplitude ± SEM: 526±97 pA
[2]
  Current amplitude [% of mean WT current amplitude] ± SEM: 7.5±15%
  nH ± SEM (Hill coefficient), glycine activation: 1.0±0.6
[2]; 1 mM glycine
  current peaks: less than 50 pA
[2]; 10-100 μM glycine
  activation by low glycine concentrations: lacks activation
[2]; [3]
  Rise time ± SEM: 673 ± 224 ms

Reference: PMC3517478 (BMC Neurology, 2012)
